Results taken from the Kinase Knowledgebase extract (Sharma et al. 2016).

Assays:
Assay in all cases: Enzyme Assay
MAPK14 (human) = MAPK14 (human) (UniProt Q16539)
ROCK2 (human) = ROCK2 (human) (UniProt O75116)
CDK2 (human) = CDK2 (human) (UniProt P24941)

Chain of MAPK14 (human) (Q16539 whole entry, looked up): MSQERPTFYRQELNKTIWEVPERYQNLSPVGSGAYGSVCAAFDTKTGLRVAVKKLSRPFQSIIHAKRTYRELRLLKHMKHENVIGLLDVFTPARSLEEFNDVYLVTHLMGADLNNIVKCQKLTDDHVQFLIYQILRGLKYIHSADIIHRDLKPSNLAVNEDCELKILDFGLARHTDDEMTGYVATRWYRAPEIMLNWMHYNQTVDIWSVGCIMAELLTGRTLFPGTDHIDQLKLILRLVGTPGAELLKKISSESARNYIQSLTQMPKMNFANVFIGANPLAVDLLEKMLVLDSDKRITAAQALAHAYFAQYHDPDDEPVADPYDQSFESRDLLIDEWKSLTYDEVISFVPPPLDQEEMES
Chain of ROCK2 (human) (O75116 whole entry, looked up): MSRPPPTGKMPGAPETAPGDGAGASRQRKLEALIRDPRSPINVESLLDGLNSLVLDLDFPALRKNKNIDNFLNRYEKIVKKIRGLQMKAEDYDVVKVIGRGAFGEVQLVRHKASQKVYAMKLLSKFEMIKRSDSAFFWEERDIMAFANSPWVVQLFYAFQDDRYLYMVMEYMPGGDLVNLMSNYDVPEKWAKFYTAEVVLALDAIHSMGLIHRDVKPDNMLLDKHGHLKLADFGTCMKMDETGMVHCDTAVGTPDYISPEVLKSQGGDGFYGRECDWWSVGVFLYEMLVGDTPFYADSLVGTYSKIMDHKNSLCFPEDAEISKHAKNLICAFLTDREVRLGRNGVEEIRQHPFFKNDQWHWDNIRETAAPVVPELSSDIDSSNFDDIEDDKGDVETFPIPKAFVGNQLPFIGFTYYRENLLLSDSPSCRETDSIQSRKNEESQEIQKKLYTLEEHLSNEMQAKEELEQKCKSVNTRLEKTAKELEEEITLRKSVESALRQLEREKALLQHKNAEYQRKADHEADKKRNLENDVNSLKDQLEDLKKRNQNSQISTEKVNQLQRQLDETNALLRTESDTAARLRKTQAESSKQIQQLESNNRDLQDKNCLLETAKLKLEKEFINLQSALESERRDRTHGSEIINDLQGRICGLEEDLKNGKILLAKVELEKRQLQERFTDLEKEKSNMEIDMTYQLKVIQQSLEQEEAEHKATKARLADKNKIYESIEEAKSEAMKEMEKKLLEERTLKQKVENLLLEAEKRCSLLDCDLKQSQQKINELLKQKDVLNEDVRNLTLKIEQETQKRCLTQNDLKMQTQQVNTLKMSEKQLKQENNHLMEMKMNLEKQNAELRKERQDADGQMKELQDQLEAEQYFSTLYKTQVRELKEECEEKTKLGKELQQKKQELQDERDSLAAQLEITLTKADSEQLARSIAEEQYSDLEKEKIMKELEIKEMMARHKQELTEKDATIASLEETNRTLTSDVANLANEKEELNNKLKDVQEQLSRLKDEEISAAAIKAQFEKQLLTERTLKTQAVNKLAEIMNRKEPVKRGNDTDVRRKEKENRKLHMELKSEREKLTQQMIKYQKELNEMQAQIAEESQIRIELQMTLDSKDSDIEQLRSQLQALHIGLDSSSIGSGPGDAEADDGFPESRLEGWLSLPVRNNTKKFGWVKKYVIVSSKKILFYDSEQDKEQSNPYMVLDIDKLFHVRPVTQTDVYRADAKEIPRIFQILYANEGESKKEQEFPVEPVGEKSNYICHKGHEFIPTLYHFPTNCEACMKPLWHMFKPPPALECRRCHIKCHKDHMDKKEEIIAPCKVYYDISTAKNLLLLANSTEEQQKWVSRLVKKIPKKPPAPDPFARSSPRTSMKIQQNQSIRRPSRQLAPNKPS

| SMILES | Ki (MAPK14 (human)) [nM] | Ki (ROCK2 (human)) [nM] | Ki (CDK2 (human)) [nM] |
| --- | --- | --- | --- |
| CC(=O)n1ncc2cc(N)ccc21 | 7940 |  |  |
| O=C1Nc2ccccc2Nc2cc(-c3ccncc3Cl)ccc21 |  | 631 | 501 |
| Cc1n[nH]c2ccc(-c3cncc(OCCN(C)S(C)(=O)=O)c3)cc12 |  | 100 | 501 |
| Fc1cccc(CNc2ncnc3[nH]cnc23)c1 | 15800 |  |  |
| Cc1cccc(CNc2cc(-c3c[nH]c4ncccc34)cc(Cl)n2)c1C |  | 31.6 | 200 |
| Fc1cccc(-c2c[nH]c3ncccc23)c1 |  | 316 | 1260 |
| NC1CCCCC1Nc1nccc(-c2c[nH]c3ncccc23)n1 (configuration not stated) |  |  | 12.6 |
| O=C(NCc1ccccc1)c1c[nH]n2c(=O)cc(-c3ccncc3)nc12 |  | > 7940 | 158 |
| CC(C)(C)c1cc(NC(=O)C(=O)c2cccc3ccccc23)n(-c2ccc(OCC(=O)NCCO)cc2)n1 | 631 |  |  |
| NC(=O)c1ccc2c(ccn2-c2cccc(Cl)c2)c1 |  | 2510 |  |
| CCNC(=O)c1[nH]nc(-c2cc(Cl)c(O)cc2O)c1-c1ccc(OC)cc1 |  | 2510 | 6310 |
| CN(c1ccccc1-c1ccc2c(c1)Nc1ccccc1NC2=O)S(C)(=O)=O |  |  | 2000 |
| Fc1ccc2c(c1)-c1n[nH]cc1CS2 |  |  | 20000 |
| Clc1cc(-c2c[nH]c3ncccc23)nc(NC2CCCCC2)n1 |  | 126 | 200 |
| CCCCNc1c(-c2ccc3[nH]ncc3c2)nc2ncccn12 |  | 63.1 | 398 |
| CC(C)(CO)CCCNc1cc(-c2c[nH]c3ncccc23)cc(Cl)n1 |  | 10 | 100 |
| O=C1Nc2ccccc2Nc2cc(-c3ccncc3)ccc21 |  | 316 | 1000 |
| Cc1sc2[nH]c(=O)n3nc(-c4ccncc4)nc3c2c1C |  | 3980 |  |
| CCn1c(-c2nonc2N)nc2cnc(Oc3cccc(NC(=O)c4ccc(OCCN5CCOCC5)cc4)c3)cc21 |  |  | 794 |
| CN(C)C1CCC(Nc2nc(Cl)cc(-c3c[nH]c4ncccc34)n2)CC1 (configuration not stated) |  | 2.51 | 25.1 |
| COCCNc1cc(-c2c[nH]c3ncccc23)cc(Cl)n1 |  | 5.01 | 251 |
| NNc1cc(N2CCOCC2)nc(OCCc2ccccn2)n1 |  | > 5010 |  |
| CCCCNc1cc(-c2ccncc2)cc2[nH]nc(N)c12 |  | 63.1 | 200 |
| CCOC(=O)c1cn(-c2ccc(O)cc2C)c2cc(-c3ccncc3)ccc2c1=O |  | 31.6 | 3980 |
| COCCN(CCOC)c1cc(-c2c[nH]c3ncccc23)cc(Cl)n1 |  | 39.8 | 2000 |

| SMILES | Ki (MAPK14 (human)) [nM] | Ki (ROCK2 (human)) [nM] | Ki (CDK2 (human)) [nM] |
| --- | --- | --- | --- |
| Cc1ccc(Nc2nccc(Nc3ccccc3C(=O)O)n2)cc1F |  | > 7940 | 398 |
| O=C(O)c1ccccc1Nc1ncnc(Nc2ccc3cn[nH]c3c2)n1 |  | > 5010 | 316 |
| CCCCC(=O)Nc1cc(-c2c[nH]c3ncccc23)cc(Cl)n1 |  | 158 |  |
| CCOC(=O)c1c[nH]n2c(=O)cc(-c3ccncc3)nc12 |  | 2000 |  |
| Cc1cccc(NC(=O)Nc2ccc3c(c2)CCc2sc4ncnc(N)c4c2-3)c1 |  | 79.4 |  |
| CCCCNc1cc(-c2c[nH]c3ncccc23)ncn1 |  | 20 | 200 |
| CN(Cc1ccccc1)c1cc(-c2c[nH]c3ncccc23)cc(Cl)n1 |  | 20 | 31.6 |
| c1cnc2[nH]cc(-c3ccnc(NCC4CCCCC4)n3)c2c1 |  | 6.31 | 3.98 |
| O=c1cc(-c2ccncc2)nc(NCc2cc(F)cc(F)c2)[nH]1 |  | 794 | 794 |
| NC(=O)Cn1cc(-c2cc(-c3cc4ccccc4s3)c3[nH]ncc3c2)c2nc(N)ncc21 |  | 316 | 398 |
| O=C1NC(=O)C(c2c[nH]c3ccccc23)=C1c1nc(N2CCNCC2)nc2ccccc12 |  | > 3980 |  |
| c1ccc(Cn2nnc(-c3ccc4[nH]ncc4c3)c2-c2ccccc2)cc1 |  |  | 63.1 |
| FC(F)(F)c1ccccc1CNc1nccc(-c2c[nH]c3ncccc23)n1 |  |  | 5.01 |
| O=C(O)c1ccccc1Nc1ccnc(NCc2cccc(O)c2)n1 |  | > 7940 |  |
| O=C(Nc1ccccc1)Nc1nccs1 |  |  | 20000 |
| CN(C)c1ccc(-c2c(-c3ccc4[nH]nc(N)c4c3)nnn2Cc2ccccc2)cc1 |  | 20 | 126 |
| OCCNc1cc(-c2c[nH]c3ncccc23)cc(Cl)n1 |  | 20 | 316 |
| c1ccc(Cn2cc(-c3ccc4[nH]nc(-c5ccccc5)c4c3)nn2)cc1 |  | 63.1 | 100 |
| COc1cc2c(cc1F)C(c1ccccc1Cl)=Nc1c(n[nH]c1C)N2 |  | > 7940 |  |
| CCCCOc1cc(-c2ccncc2)cc2[nH]nc(N)c12 |  | 126 | 1000 |
| NC(=O)c1cc(-c2ccnc(N)n2)[nH]c1-c1ccc(Cl)cc1Cl |  | 316 |  |
| Cc1n[nH]c2ccc(-c3cncc(OCCNS(C)(=O)=O)c3)cc12 |  | 158 | 316 |
| CC(C)(CO)CNc1nccc(-c2c(-c3ccc(F)cc3)nc3c(CC4CC4)nccn23)n1 |  | > 7940 |  |
| Cn1cc(-c2ccccc2)c2nc(-c3ccncc3)cc(=O)n21 |  | 3160 |  |
| NC(=O)c1ccccc1Nc1nc(Nc2ccccc2)ncc1C(F)(F)F |  | 501 |  |
